Columns and labels:
[1] = target: T1, TetOn hLOX-1 CHO cells (human LOX-1) (Homo sapiens, UniProt P78380); experiment: Binding of DiI-labeled oxidized LDL to LOX-1 expressing cells under low temperature conditions; type: cell-based; settings: trimeric procyanidins of different structure at 0.1 μg/ml, on ice; Example 5
T1 construct: expressed in transfected cells
Experimental: It is said that caveola or clathrin is also involved in the incorporation of oxidized LDL into the cells, in addition to that mediated by LOX-1.
First, 100 μl of the suspension of LOX-1 expressing cells adjusted with the above culture medium so as to achieve a density of 1×10^5 cells/ml was dispensed into each well of a 96-well plate (manufactured by Costar, Product Number: 3603). In addition, in order to induce the expression of LOX-1, doxycycline (manufactured by Calbiochem) was added so that the final concentration thereof was 1 μg/ml. As a control, a well where no doxycycline was added so that no expression was induced was also prepared. This 96-well plate was incubated at 37° C. for 24 hours in a CO2 incubator, and each well was then washed with the aforementioned FBS(−) medium cooled to 4° C. […]
This 96-well plate was observed using the In Cell Analyzer 1000 system (manufactured by GE healthcare) to measure the DiI fluorescence intensity and the number of nuclei per each well, and the fluorescence intensity per single cell was determined in the same manner as in Example 2.
Further, the oxidized LDL binding rate (%) was calculated by the following formula (3). […]
Subsequently, the effects of these four types of trimeric procyanidins on the inhibition of the bonding between LOX-1 and oxidized LDL were evaluated. […]

[2] = target: T2, ex-hLOX-1 protein (Homo sapiens, UniProt P78380); experiment: BIACORE measurement of direct bonding of procyanidins and LOX-1; settings: monomers to heptamers at 20 μM; peak 3 trimers at 1.25-20 μM; 120 s binding, 120 s dissociation; read-out: Dissociation Constant
T2 construct: IgK secretion signal (printed 'IgK selection signal') (N, cleaved yes); His tag (from vector pSecTag/FRT/V5His); made in house; host or cells: 293F cells (FreeStyle 293 Expression System)
Experimental: The direct bonding of procyanidins and LOX-1 was evaluated using the BIACORE system.
LOX-1 was fixed on a sensor chip, and the BIACORE measurement was carried out using the procyanidins as the liquid phase. The BIACORE measurements and analyses were conducted using the BIACORE 2000 (GE Healthcare). In addition, the sensor chip CM5 was used as a sensor chip, and the ex-hLOX-1 protein was immobilized on the sensor chip by employing the amine coupling method. A HEPES solution (consisted of 10 mM HEPES, 150 mM NaCl and 2 mM CaCl2) was degassed and used as the running buffer.
Among the procyanidins made to flow through the chip, monomeric to heptameric procyanidins were each adjusted to 20 μM using the running buffer and used for the measurement.
In addition, when the procyanidins were reacted in the sensor chip, the flow rate was set to 20 μl/min, and the dissociation constant was measured with 120 seconds of binding and 120 seconds of dissociation.

Kd [2] [µM] | Compound | oxidized LDL binding rate (LOX-1 inhibiting activity) [1]
 | Oc1cc(O)c2c(c1)O[C@H](c1ccc(O)c(O)c1)[C@H](O)[C@H]2c1c(O)cc2c(c1O)[C@H](c1c(O)cc(O)c3c1O[C@H](c1ccc(O)c(O)c1)[C@@H](O)C3)[C@@H](O)[C@@H](c1ccc(O)c(O)c1)O2 (single isomer, unassigned; peak 2) [peak 2, epi (4β → 6) epi (4β → 8) cat] | exhibited stronger LOX-1 inhibiting activities than the trimeric procyanidins represented by peaks 1 and 4
3.8 | Oc1cc(O)c2c(c1)O[C@H](c1ccc(O)c(O)c1)[C@H](O)[C@H]2c1c(O)cc2c(c1O)C(c1c(O)cc(O)c3c1O[C@H](c1ccc(O)c(O)c1)[C@H](O)C3)[C@@H](O)[C@@H](c1ccc(O)c(O)c1)O2 (single isomer, unassigned; peak 3) [peak 3, epi (4β → 6) epi (4β → 8) epi] | exhibited stronger LOX-1 inhibiting activities than the trimeric procyanidins represented by peaks 1 and 4

Reference: US20120088896A1, “DRUG FOR INHIBITING LECTIN-LIKE OXIDIZED LDL RECEPTOR AND DRUG FOR PREVENTING ARTERIOSCLEROSIS” (NATIONAL CEREBRAL AND CARDIOVASCULAR CENTER, priority 2009, published 2012)
